Assay results from the supplement of paper PMC8967900.

Key:
Assay in all cases: selective drug sensitivity score (sDSS, relative to normal bone marrow) (sDSS (score)); higher = more potent and effective on the cell line relative to normal bone marrow cells
Conditions in all cases: 72 h
CCRF-CEM = system: CCRF-CEM
COG-LL-317 = system: COG-LL-317
COG-LL-355h = system: COG-LL-355h
COG-LL-394h = system: COG-LL-394h
COG-LL-402h = system: COG-LL-402h
HAL-01 = system: HAL-01
JURKAT = system: JURKAT
KARPAS-45 = system: KARPAS-45
KASUMI-10 = system: KASUMI-10
KASUMI-9 = system: KASUMI-9
LC4-1 = system: LC4-1
MHH-CALL-3 = system: MHH-CALL-3
MHH-CALL-4 = system: MHH-CALL-4
MN-60 = system: MN-60
MOLT-14 = system: MOLT-14
NALL-1 = system: NALL-1
PEER = system: PEER
RCH-ACV = system: RCH-ACV
RPMI-8402 = system: RPMI-8402
TMD5 = system: TMD5
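Note: ALL cell lines in 384-well plates, five doses spanning 10,000-fold, each plate scaled between vehicle and 100 µmol/L benzalkonium chloride controls, sDSS an adapted area-under-curve metric.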

## CO[C@H]1C[C@@H]2CC[C@@H](C)[C@@](O)(O2)C(=O)C(=O)N2CCCC[C@H]2C(=O)O[C@H]([C@H](C)C[C@@H]2CC[C@@H](OP(C)(C)=O)[C@H](OC)C2)CC(=O)[C@H](C)/C=C(\C)[C@@H](O)[C@@H](OC)C(=O)[C@H](C)C[C@H](C)/C=C/C=C/C=C/1C [Ridaforolimus] (top concentration 100 nM)
CCRF-CEM
  selective drug sensitivity score: 7.36
COG-LL-317
  selective drug sensitivity score: 2.76
COG-LL-355h
  selective drug sensitivity score: -2.14
COG-LL-394h
  selective drug sensitivity score: -4.84
COG-LL-402h
  selective drug sensitivity score: 4.66
HAL-01
  selective drug sensitivity score: -4.34
JURKAT
  selective drug sensitivity score: 0.26
KARPAS-45
  selective drug sensitivity score: 1.56
KASUMI-10
  selective drug sensitivity score: -4.84
KASUMI-9
  selective drug sensitivity score: 6.96
LC4-1
  selective drug sensitivity score: 4.46
MHH-CALL-3
  selective drug sensitivity score: 3.96
MHH-CALL-4
  selective drug sensitivity score: -4.44
MN-60
  selective drug sensitivity score: 5.16
MOLT-14
  selective drug sensitivity score: -2.44
NALL-1
  selective drug sensitivity score: -4.44
PEER
  selective drug sensitivity score: 7.26
RCH-ACV
  selective drug sensitivity score: 18.9
RPMI-8402
  selective drug sensitivity score: -1.44
TMD5
  selective drug sensitivity score: -4.84

## CC[C@@H](C(=O)[C@@H](C)[C@@H](O)[C@H](C)[C@@H]1O[C@@H]([C@@H](CC)C(=O)O)CC[C@@H]1C)[C@H]1O[C@]2(C=C[C@@H](O)[C@]3(CC[C@@](C)([C@H]4CC[C@](O)(CC)[C@H](C)O4)O3)O2)[C@H](C)C[C@@H]1C [Salinomycin] (top concentration 50000 nM)
CCRF-CEM
  selective drug sensitivity score: 2
COG-LL-317
  selective drug sensitivity score: -2.2
COG-LL-355h
  selective drug sensitivity score: -3.1
COG-LL-394h
  selective drug sensitivity score: 3.2
COG-LL-402h
  selective drug sensitivity score: -4
HAL-01
  selective drug sensitivity score: 5.6
JURKAT
  selective drug sensitivity score: 3.1
KARPAS-45
  selective drug sensitivity score: 5.4
KASUMI-10
  selective drug sensitivity score: 1.8
KASUMI-9
  selective drug sensitivity score: -11.4
LC4-1
  selective drug sensitivity score: -10.9
MHH-CALL-3
  selective drug sensitivity score: -3.3
MHH-CALL-4
  selective drug sensitivity score: 8.5
MN-60
  selective drug sensitivity score: 0.3
MOLT-14
  selective drug sensitivity score: 6.3
NALL-1
  selective drug sensitivity score: 2.2
PEER
  selective drug sensitivity score: 10.5
RCH-ACV
  selective drug sensitivity score: -15.4
RPMI-8402
  selective drug sensitivity score: 10.1
TMD5
  selective drug sensitivity score: 1.1

## CC(C)Oc1ccc(C(=O)N[C@H](CNC(=O)CN(C)C)Cc2ccc(-c3cn4cccc([C@H](C)O)c4n3)cc2)cc1Cl (top concentration 10000 nM)
CCRF-CEM
  selective drug sensitivity score: 16.2
COG-LL-317
  selective drug sensitivity score: 16.6
COG-LL-355h
  selective drug sensitivity score: -2.62
COG-LL-394h
  selective drug sensitivity score: -0.72
COG-LL-402h
  selective drug sensitivity score: 10.6
HAL-01
  selective drug sensitivity score: 1.98
JURKAT
  selective drug sensitivity score: 13.6
KARPAS-45
  selective drug sensitivity score: 7.48
KASUMI-10
  selective drug sensitivity score: 6.88
KASUMI-9
  selective drug sensitivity score: 10.3
LC4-1
  selective drug sensitivity score: 8.28
MHH-CALL-3
  selective drug sensitivity score: -9.32
MHH-CALL-4
  selective drug sensitivity score: 0.78
MN-60
  selective drug sensitivity score: -1.62
MOLT-14
  selective drug sensitivity score: 17.4
NALL-1
  selective drug sensitivity score: 9.88
PEER
  selective drug sensitivity score: 19.9
RCH-ACV
  selective drug sensitivity score: 18
RPMI-8402
  selective drug sensitivity score: 9.28
TMD5
  selective drug sensitivity score: 5.18

## Nc1ncn([C@H]2C[C@H](O)[C@@H](CO)O2)c(=O)n1 [Decitabine] (top concentration 10000 nM)
CCRF-CEM
  selective drug sensitivity score: 4.44
COG-LL-317
  selective drug sensitivity score: 14.9
COG-LL-355h
  selective drug sensitivity score: -0.96
COG-LL-394h
  selective drug sensitivity score: -6.06
COG-LL-402h
  selective drug sensitivity score: 3.34
HAL-01
  selective drug sensitivity score: -1.76
JURKAT
  selective drug sensitivity score: 4.04
KARPAS-45
  selective drug sensitivity score: -6.06
KASUMI-10
  selective drug sensitivity score: -3.06
KASUMI-9
  selective drug sensitivity score: -0.16
LC4-1
  selective drug sensitivity score: -0.06
MHH-CALL-3
  selective drug sensitivity score: 2.34
MHH-CALL-4
  selective drug sensitivity score: 0.54
MN-60
  selective drug sensitivity score: -5.86
MOLT-14
  selective drug sensitivity score: 0.44
NALL-1
  selective drug sensitivity score: -5.96
PEER
  selective drug sensitivity score: 2.94
RCH-ACV
  selective drug sensitivity score: 10.1
RPMI-8402
  selective drug sensitivity score: 1.24
TMD5
  selective drug sensitivity score: -5.56

## Cc1sc2c(c1C)C(c1ccc(Cl)cc1)=N[C@@H](CC(=O)Nc1ccc(O)cc1)c1nnc(C)n1-2 [Birabresib] (top concentration 10000 nM)
CCRF-CEM
  selective drug sensitivity score: 1.22
COG-LL-317
  selective drug sensitivity score: 9.12
COG-LL-355h
  selective drug sensitivity score: 2.42
COG-LL-394h
  selective drug sensitivity score: -0.08
COG-LL-402h
  selective drug sensitivity score: 7.12
HAL-01
  selective drug sensitivity score: -0.78
JURKAT
  selective drug sensitivity score: -1.98
KARPAS-45
  selective drug sensitivity score: 9.42
KASUMI-10
  selective drug sensitivity score: 7.02
KASUMI-9
  selective drug sensitivity score: 13.1
LC4-1
  selective drug sensitivity score: 4.92
MHH-CALL-3
  selective drug sensitivity score: 14
MHH-CALL-4
  selective drug sensitivity score: 6.02
MN-60
  selective drug sensitivity score: 6.72
MOLT-14
  selective drug sensitivity score: 1.72
NALL-1
  selective drug sensitivity score: -3.58
PEER
  selective drug sensitivity score: -0.08
RCH-ACV
  selective drug sensitivity score: 12
RPMI-8402
  selective drug sensitivity score: 3.72
TMD5
  selective drug sensitivity score: -9.18

## O=C(O)C(=O)O.[NH-][C@@H]1CCCC[C@H]1[NH-].[Pt+2] [Oxaliplatin] (top concentration 100000 nM)
CCRF-CEM
  selective drug sensitivity score: 8.22
COG-LL-317
  selective drug sensitivity score: 17.2
COG-LL-355h
  selective drug sensitivity score: 4.92
COG-LL-394h
  selective drug sensitivity score: 8.32
COG-LL-402h
  selective drug sensitivity score: 12.9
HAL-01
  selective drug sensitivity score: 15.3
JURKAT
  selective drug sensitivity score: 5.52
KARPAS-45
  selective drug sensitivity score: -0.08
KASUMI-10
  selective drug sensitivity score: 14.2
KASUMI-9
  selective drug sensitivity score: 13.6
LC4-1
  selective drug sensitivity score: 10.6
MHH-CALL-3
  selective drug sensitivity score: 10.3
MHH-CALL-4
  selective drug sensitivity score: 12.1
MN-60
  selective drug sensitivity score: -0.38
MOLT-14
  selective drug sensitivity score: 9.22
NALL-1
  selective drug sensitivity score: 2.92
PEER
  selective drug sensitivity score: 0.62
RCH-ACV
  selective drug sensitivity score: 11.6
RPMI-8402
  selective drug sensitivity score: 8.02
TMD5
  selective drug sensitivity score: -0.08
